These results are taken from patent US20230131966A1, “FUNGICIDAL AMIDES” (FMC Corporation, priority 2020, published 2023).

Holding throughout (type): in vivo
One assay deals with Phakopsora pachyrhizi. Description: Test A: Asian soybean rust control on soybean seedlings. To be noted: soybean seedlings, 100 = 100% disease control, 0 = no control.
The subject of assay [1] is Puccinia recondita f. sp. tritici. Description: Test B: wheat leaf rust control on wheat seedlings. To be noted: wheat seedlings, 100 = 100% disease control, 0 = no control.
The next assay concerns Plasmopara viticola. The assay is described as follows: Test D: grape downy mildew control on grape seedlings. The following applies: 250 ppm, 100 = 100% disease control, 0 = no control.
Another assay deals with Botrytis cinerea. Description: Test E: tomato Botrytis control on tomato seedlings. To be noted: 250 ppm, 100 = 100% disease control, 0 = no control.
The next assay deals with Phytophthora infestans. Description: whole plant or invertebrate. The following applies: tomato seedlings, 100 = 100% disease control, 0 = no control; for Test F disease control rating: 250 ppm.
Assay [2] has as its system Erysiphe graminis f. sp. tritici. The assay is described as follows: Test G: wheat powdery mildew control on wheat seedlings. To be noted: 250 ppm, 100 = 100% disease control, 0 = no control.
In the next assay the test system is Zymoseptoria tritici. Description: Test C: wheat leaf blotch control on wheat seedlings. To be noted: 250 ppm, wheat seedlings, 100 = 100% disease control, 0 = no control.

On to `COc1ccnc(C(=O)N[C@@H](C)C(=O)OC(C)C2CCCCC2)c1O` (single isomer, unassigned) [Compound 51], for which the “Test A disease control rating” value in the assay with Phakopsora pachyrhizi (50 ppm) came to 100%. Also, in assay [1] (50 ppm), the “Test B disease control rating” value stood at 100%.

For `COc1ccnc(C(=O)N[C@@H](C)C(=O)OC(C)c2ccc(F)cc2Cc2ccc(F)cc2)c1O` (single isomer, unassigned) [Compound 54], in the assay with Phakopsora pachyrhizi (250 ppm), the “Test A disease control rating” value was determined as 79%. Besides, in assay [1] (250 ppm), the “Test B disease control rating” value was 68%. Moreover, in the assay on Plasmopara viticola, the “Test D disease control rating” value was 55%. Further, the “Test E disease control rating” value in the assay on Botrytis cinerea was 0%. Also, in the assay on Phytophthora infestans, the “Test F disease control rating” value is 0%. Also, the “Test G disease control rating” value in assay [2] stood at 0%.

On to `COc1ccnc(C(=O)N[C@@H](C)C(=O)OC(C)c2ccccc2Oc2ccccc2)c1OC(C)=O` (single isomer, unassigned) [Compound 107], for which the “Test A disease control rating” value in the assay on Phakopsora pachyrhizi (250 ppm) is on record as 100%. For the same compound, in assay [1] (250 ppm), the “Test B disease control rating” value was found to be 98%. The “Test C disease control rating” value with Zymoseptoria tritici came to 87%. The “Test E disease control rating” value in the assay with Botrytis cinerea came to 0%. Moreover, the “Test F disease control rating” value in the assay with Phytophthora infestans is given as 0%. The “Test G disease control rating” value in assay [2] is 0%.

Regarding `CCOC(=O)c1cnn(-c2ccc(C(C)OC(=O)C(C)NC(=O)c3nccc(OC)c3O)cc2)c1` (mixture of isomers) [Compound 50], the “Test B disease control rating” value in assay [1] (250 ppm) was 68%. Besides, the “Test C disease control rating” value in the assay on Zymoseptoria tritici was determined as 54%.

In the case of `COc1ccnc(C(=O)N[C@@H](C)C(=O)OC(C)c2ccc(F)cc2Cc2ccc(F)cc2)c1O` (single isomer, unassigned) [Compound 41], the “Test A disease control rating” value with Phakopsora pachyrhizi (250 ppm) is 100%. The “Test B disease control rating” value in assay [1] (250 ppm) is listed as 100%. Further, the “Test D disease control rating” value in the assay on Plasmopara viticola came to 70%. The “Test E disease control rating” value in the assay on Botrytis cinerea is on record as 0%. Also, the “Test F disease control rating” value in the assay on Phytophthora infestans is reported as 24%. The “Test G disease control rating” value in assay [2] stood at 0%.

For the compound `COc1ccnc(C(=O)NC(C)C(=O)OC(C)c2ccc3ccccc3c2)c1O` (racemic) [Compound 76], the pest or weed control at 250 ppm in the assay with Phakopsora pachyrhizi (Phakopsora pachyrhizi, 250 ppm, read-out: Test A disease control rating) was 100%; in assay [1] (Puccinia recondita, 250 ppm, read-out: Test B disease control rating), 100%; in the assay with Zymoseptoria tritici (Zymoseptoria tritici, read-out: Test C disease control rating), 99%; in the assay on Botrytis cinerea (Botrytis cinerea, read-out: Test E disease control rating) it was 0%; in the assay on Phytophthora infestans (Phytophthora infestans, in Solanum lycopersicum, read-out: Test F disease control rating, 250 ppm), 0%.

As to `COc1ccnc(C(=O)NC(C)C(=O)OC(C)c2ccc(C3CC3)cc2)c1OC(C)=O` (mixture of isomers) [Compound 71], in the assay on Phakopsora pachyrhizi (50 ppm), the “Test A disease control rating” value is on record as 89%.

With `COc1ccnc(C(=O)N[C@@H](C)C(=O)OC(c2ccc(C3CCCCC3)cc2)C(C)C)c1OC(C)=O` (stereo partly shown) [Compound 96], in the assay on Phakopsora pachyrhizi (50 ppm), the “Test A disease control rating” value is 94%. In assay [1] (50 ppm), the “Test B disease control rating” value came to 95%.

In the case of `COc1ccnc(C(=O)N[C@@H](C)C(=O)OC(C)c2ccccc2Oc2ccc(F)cc2)c1O` (single isomer, unassigned) [Compound 59], in the assay with Phakopsora pachyrhizi (250 ppm), the “Test A disease control rating” value turned out to be 100%. In addition, the “Test B disease control rating” value in assay [1] (250 ppm) turned out to be 100%. For the same compound, the “Test D disease control rating” value in the assay with Plasmopara viticola amounted to 66%. In the assay with Botrytis cinerea, the “Test E disease control rating” value is recorded as 0%. Also, the “Test F disease control rating” value in the assay with Phytophthora infestans came to 0%. Further, the “Test G disease control rating” value in assay [2] was 13%.

With `COc1ccnc(C(=O)N[C@@H](C)C(=O)OC(C)c2ccccc2Oc2ccccc2)c1O` (single isomer, unassigned) [Compound 105], the “Test A disease control rating” value with Phakopsora pachyrhizi (250 ppm) is reported as 98%. Besides, in assay [1] (250 ppm), the “Test B disease control rating” value was found to be 28%. The “Test C disease control rating” value in the assay on Zymoseptoria tritici was determined as 67%. Also, the “Test E disease control rating” value with Botrytis cinerea turned out to be 0%. Also, the “Test F disease control rating” value in the assay on Phytophthora infestans was found to be 0%. For the same compound, in assay [2], the “Test G disease control rating” value was determined as 0%.

Turning to `COc1ccnc(C(=O)N[C@@H](C)C(=O)OC(C)c2cccc3ccccc23)c1OC(C)=O` (single isomer, unassigned) [Compound 115], the “Test A disease control rating” value with Phakopsora pachyrhizi (250 ppm) is given as 89%. Besides, in assay [1] (250 ppm), the “Test B disease control rating” value is given as 55%. Further, in the assay on Zymoseptoria tritici, the “Test C disease control rating” value was found to be 86%. Also, in the assay on Botrytis cinerea, the “Test E disease control rating” value is 0%. In addition, in the assay with Phytophthora infestans, the “Test F disease control rating” value is recorded as 0%. The “Test G disease control rating” value in assay [2] was 0%.

In the case of `COc1ccnc(C(=O)N[C@@H](C)C(=O)OC(C)c2ccccc2Cc2ccccc2)c1OC(C)=O` (single isomer, unassigned) [Compound 110], the “Test A disease control rating” value in the assay with Phakopsora pachyrhizi (250 ppm) was found to be 100%. For the same compound, the “Test B disease control rating” value in assay [1] (250 ppm) is 99%. Further, the “Test C disease control rating” value in the assay on Zymoseptoria tritici is recorded as 92%. The “Test E disease control rating” value with Botrytis cinerea was 0%. The “Test F disease control rating” value in the assay on Phytophthora infestans was 0%. In addition, the “Test G disease control rating” value in assay [2] came to 0%.

As for `COc1ccnc(C(=O)N[C@@H](C)C(=O)OC(C)c2ccccc2Oc2ccccc2)c1OC(C)=O` (single isomer, unassigned) [Compound 108], the “Test A disease control rating” value in the assay with Phakopsora pachyrhizi (250 ppm) was 43%. Besides, in assay [1] (250 ppm), the “Test B disease control rating” value is on record as 32%. For the same compound, the “Test C disease control rating” value with Zymoseptoria tritici came out at 75%. Further, the “Test E disease control rating” value in the assay on Botrytis cinerea turned out to be 0%. For the same compound, the “Test F disease control rating” value in the assay on Phytophthora infestans came out at 0%. The “Test G disease control rating” value in assay [2] is 0%.

On to `COc1ccnc(C(=O)NC(C)C(=O)OC(C)C23CC4CC(CC(C4)C2)C3)c1O` (racemic) [Compound 44], for which the pest or weed control at 50 ppm in the assay on Phakopsora pachyrhizi (Phakopsora pachyrhizi, 50 ppm, read-out: Test A disease control rating) came out at 75%; in assay [1] (Puccinia recondita, 50 ppm, read-out: Test B disease control rating), 55%.

Consider `COc1ccnc(C(=O)N[C@@H](C)C(=O)OC(C)c2ccc(C3CCCCC3)cc2)c1O` (single isomer, unassigned) [Compound 74], for which the “Test A disease control rating” value in the assay with Phakopsora pachyrhizi (50 ppm) is reported as 100%. Besides, the “Test B disease control rating” value in assay [1] (50 ppm) turned out to be 99%.

For `COc1ccnc(C(=O)NC(C)C(=O)OC(C)c2ccc(C3CCCC3)cc2)c1O` (mixture of isomers) [Compound 65], in the assay with Phakopsora pachyrhizi (50 ppm), the “Test A disease control rating” value worked out at 100%. In addition, the “Test B disease control rating” value in assay [1] (50 ppm) is 98%.

As to `COc1ccnc(C(=O)NC(C)C(=O)OC(C)c2ccccc2Oc2ccc(F)cc2)c1O` (mixture of isomers) [Compound 55], in the assay on Phakopsora pachyrhizi (250 ppm), the “Test A disease control rating” value is listed as 100%. Moreover, the “Test B disease control rating” value in assay [1] (250 ppm) was 98%. The “Test D disease control rating” value in the assay on Plasmopara viticola was 52%. The “Test E disease control rating” value with Botrytis cinerea turned out to be 0%. Moreover, the “Test F disease control rating” value with Phytophthora infestans worked out at 0%. The “Test G disease control rating” value in assay [2] is listed as 13%.

On to `COc1ccnc(C(=O)N[C@@H](C)C(=O)OC(C)c2ccccc2Oc2ccccc2)c1O` (single isomer, unassigned) [Compound 106], for which, in the assay on Phakopsora pachyrhizi (250 ppm), the “Test A disease control rating” value was 100%. The “Test B disease control rating” value in assay [1] (250 ppm) was found to be 92%. Also, in the assay on Zymoseptoria tritici, the “Test C disease control rating” value was determined as 90%. The “Test E disease control rating” value in the assay with Botrytis cinerea is 16%. In addition, the “Test F disease control rating” value in the assay with Phytophthora infestans was found to be 0%. Further, in assay [2], the “Test G disease control rating” value worked out at 0%.

Turning to `COc1ccnc(C(=O)N[C@@H](C)C(=O)OC(C)c2ccccc2Cc2ccccc2)c1O` (single isomer, unassigned) [Compound 111], in the assay on Phakopsora pachyrhizi (250 ppm), the “Test A disease control rating” value is recorded as 97%. Further, the “Test B disease control rating” value in assay [1] (250 ppm) is reported as 9%. In addition, in the assay on Zymoseptoria tritici, the “Test C disease control rating” value was 56%. Further, the “Test E disease control rating” value in the assay with Botrytis cinerea was found to be 16%. The “Test F disease control rating” value in the assay on Phytophthora infestans is reported as 0%. In assay [2], the “Test G disease control rating” value came to 0%.

`COc1ccnc(C(=O)N[C@@H](C)C(=O)OC(C)c2ccc(C3CCCCC3)cc2)c1O` (single isomer, unassigned) [Compound 73]: in the assay on Phakopsora pachyrhizi (50 ppm), the “Test A disease control rating” value is on record as 0%. Moreover, in assay [1] (50 ppm), the “Test B disease control rating” value is recorded as 41%.

`COc1ccnc(C(=O)N[C@@H](C)C(=O)OC(C)c2ccccc2Cc2ccccc2)c1OC(C)=O` (single isomer, unassigned) [Compound 112]: the “Test A disease control rating” value in the assay with Phakopsora pachyrhizi (250 ppm) was determined as 0%. For the same compound, the “Test B disease control rating” value in assay [1] (250 ppm) came out at 55%. The “Test C disease control rating” value in the assay on Zymoseptoria tritici came out at 83%. In addition, the “Test E disease control rating” value with Botrytis cinerea was found to be 0%. Besides, the “Test F disease control rating” value in the assay with Phytophthora infestans is recorded as 0%. In addition, the “Test G disease control rating” value in assay [2] is given as 0%.

For `COc1ccnc(C(=O)NC(C)C(=O)OC(C)c2ccc(F)cc2Cc2ccc(F)cc2)c1O` (mixture of isomers) [Compound 42], in the assay with Phakopsora pachyrhizi (250 ppm), the “Test A disease control rating” value came out at 100%. In addition, the “Test B disease control rating” value in assay [1] (250 ppm) is listed as 100%. In the assay on Plasmopara viticola, the “Test D disease control rating” value was determined as 66%. In addition, the “Test E disease control rating” value with Botrytis cinerea was 0%. Further, the “Test F disease control rating” value in the assay on Phytophthora infestans was found to be 0%. The “Test G disease control rating” value in assay [2] is given as 0%.

Take `COc1ccnc(C(=O)N[C@@H](C)C(=O)OC(C)c2ccccc2Cc2ccccc2)c1O` (single isomer, unassigned) [Compound 109]: the “Test A disease control rating” value with Phakopsora pachyrhizi (250 ppm) came out at 100%. For the same compound, the “Test B disease control rating” value in assay [1] (250 ppm) was 98%. The “Test C disease control rating” value in the assay with Zymoseptoria tritici is given as 85%. Besides, in the assay on Botrytis cinerea, the “Test E disease control rating” value was 98%. In the assay on Phytophthora infestans, the “Test F disease control rating” value came out at 0%. In addition, in assay [2], the “Test G disease control rating” value is recorded as 0%.

In the case of `COc1ccnc(C(=O)N[C@@H](C)C(=O)OC(C)C2CCCCC2)c1O` (single isomer, unassigned) [Compound 52], the “Test A disease control rating” value with Phakopsora pachyrhizi (50 ppm) is listed as 32%. In addition, the “Test B disease control rating” value in assay [1] (50 ppm) was found to be 9%.
